Source: patent US8017350B2, “Glimepiride- and insulin-induced glycosylphosphatidylinositol-specific phospholipase C regulation” (Sanofi-Aventis Deutschland GmbH, priority 2004, dated 2011)

Columns and labels:
[1] = molecular target: T1, Lipoprotein lipase (LPL) from bovine milk (Bos taurus, UniProt P11151); experiment: lipoprotein lipase assay (radiolabeled triolein emulsion); format: biochemical; conditions: 50 μM
T1 construct: purchased SigmalAldrich (Deisenhofen, Germany); host or cells: bovine milk
T1 sequence (P11151 29-478): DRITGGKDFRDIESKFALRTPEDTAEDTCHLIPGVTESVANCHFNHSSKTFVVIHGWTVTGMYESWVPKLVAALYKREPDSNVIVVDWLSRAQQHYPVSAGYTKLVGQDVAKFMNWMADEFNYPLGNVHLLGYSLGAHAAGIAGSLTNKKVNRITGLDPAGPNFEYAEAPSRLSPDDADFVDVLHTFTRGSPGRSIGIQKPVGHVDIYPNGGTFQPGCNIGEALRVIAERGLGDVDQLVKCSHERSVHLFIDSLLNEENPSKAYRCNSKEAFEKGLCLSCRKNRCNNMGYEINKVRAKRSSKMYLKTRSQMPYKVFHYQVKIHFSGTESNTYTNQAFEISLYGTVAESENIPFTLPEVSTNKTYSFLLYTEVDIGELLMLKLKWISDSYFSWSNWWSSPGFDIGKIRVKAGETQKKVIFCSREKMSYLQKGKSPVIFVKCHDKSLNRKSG
Experimental: (§1) Hormone-sensitive lipase (HSL) and lipoprotein lipase (LPL) were measured using a radiolabeled triolein droplet emulsion as described in “Vertesy et al., (2002) Journal Antibiotics 55:480-494”. Pancreatic lipase (PL) was determined by incubation of 0.25 mmol tributyrin in 2 ml of 5 mM Tris/HCl (pH 6.5), 6 mM sodium taurodeoxycholate, 150 mM NaCl, 1 mM CaCl2 with porcine PL and colipase in the same buffer using a recording pH stat (stirring at 1000 rpm at 25° C.) with the pH adjusted to 6.5. PC-PLC was assayed by incubation of 0.2 ml of 10 mM dipalmitoyllecithin, 0.1 ml of 10 mM SDC and 0.1 ml of 0.03 M CaCl2 with bacterial PC-PLC (in 50 mM Tris/HCl, pH 7.5, 0.1% BSA) for 10 min at 37° C. The reaction was terminated by addition of 0.1 ml of 50% TCA and subsequently of 2.5 ml of […]. After centrifugation (1500×g, 15 min), 0.2-ml portions of the upper methanol/water phase (˜1.33 ml) were removed, supplemented with 0.5 ml of 60% HClO4, then heated at 170° C. for 1 h and finally analyzed for inorganic phosphate. Mammalian PI-PLC was measured by incubation of 0.1 ml of 10 mM PI, 0.1 ml of 0.8% sodium deoxycholate, 0.1% BSA, 0.2 ml of 100 mM sodium borate (pH 7.5) and rat liver PI-PLC for 20 min at 37° C. The reaction was terminated and further processed as described for the PC-PLC. […] Radioactive phosphatidic acid was detected by phosphorimaging. […]

[2] = molecular target: T2, porcine pancreatic lipase (PL) (Sus scrofa, UniProt P00591); experiment: pancreatic lipase assay (tributyrin, pH stat); format: biochemical; conditions: 50 μM
T2 construct: crude porcine pancreatic lipase (PL); purchased SigmalAldrich (Deisenhofen, Germany); host or cells: porcine pancreas (crude preparation)
T2 sequence (P00591 whole entry): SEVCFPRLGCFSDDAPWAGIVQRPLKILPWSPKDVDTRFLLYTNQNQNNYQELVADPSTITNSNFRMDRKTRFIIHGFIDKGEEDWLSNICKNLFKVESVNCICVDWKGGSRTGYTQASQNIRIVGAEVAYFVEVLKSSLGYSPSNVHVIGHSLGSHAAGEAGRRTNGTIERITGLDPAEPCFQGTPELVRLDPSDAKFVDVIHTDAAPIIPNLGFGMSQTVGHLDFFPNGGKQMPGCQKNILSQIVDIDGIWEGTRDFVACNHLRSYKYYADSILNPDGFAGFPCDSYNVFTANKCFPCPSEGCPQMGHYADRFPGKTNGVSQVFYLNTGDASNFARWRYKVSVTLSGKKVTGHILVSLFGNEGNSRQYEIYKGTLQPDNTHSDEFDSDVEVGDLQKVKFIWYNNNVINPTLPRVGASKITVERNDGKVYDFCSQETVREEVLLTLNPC
T2 sequence (P02703 23-112 partner): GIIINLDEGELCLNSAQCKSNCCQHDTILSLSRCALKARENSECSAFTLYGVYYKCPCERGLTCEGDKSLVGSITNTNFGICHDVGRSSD
Experimental: as §1

rat liver PI-PLC = experiment: mammalian PI-PLC assay; format: biochemical; conditions: 50 μM
Experimental: as §1

[3] = system: pp59Lyn and IRS-1 in isolated rat adipocytes; experiment: tyrosine phosphorylation of pp59Lyn and IRS-1; format: cell-based
Experimental: Polypeptides separated by SDS-PAGE were transferred to polyvinylidene difluoride membranes using the semidry procedure as described in “Müller, G. et al., (2001) Mol. Cell. Biol. 21: 4553-4567”. Washed membranes were incubated with anti-caveolin-1 (1:2000), anti-pp59^Lyn (1:1250), anti-aP (1:500), anti-5′-Nuc (1:750) and anti-IRS-1 (1:2000) antibodies for 4 h at 15° C. Washed membranes were incubated with horseradish peroxidase-coupled secondary goat anti-mouse (1:2000) or goat anti-rabbit IgG (1:4000) antibodies. Labeled proteins were visualized by enhanced chemiluminescence.
FIG. 7: Effect of GPI-2350 on the glimepiride/insulin-induced activation of signaling proteins. Isolated rat adipocytes were treated (5 min, 37° C.) without or with GPI-2350 (Panels A, 50 μM; Panels B, increasing conc.) and then incubated (120 min, 37° C.) in the absence or presence of insulin (10 nM) or glimepiride (20 μM). IRS-1 and pp59^Lyn were immunoprecipitated from the defatted postnuclear infranatant (see Materials and Methods) and solubilized combined hc/lcDIGs, respectively, and then immunoblotted for phosphotyrosine. […]

[4] = system: GPI-anchored and acylated signaling proteins (pp59Lyn, Gce1, 5'-Nuc, aP) in DIGs of rat adipocytes; experiment: Redistribution of pp59Lyn, Gce1, 5'-Nuc and aP from hcDIGs to lcDIGs in rat adipocytes; format: cell-based; conditions: GPI-2350 50 μM; Tab. 2

CCCCCCCCCCCCP1(=O)O[C@@H]2[C@H](O)[C@@H](O)[C@H](O)[C@@H](O)[C@@H]2O1 (stereo partly drawn) [GPI-2350, myo-inositol-1,2-cyclo-dodecylphosphonic acid]
effect on LPL [1]: not significantly affected
effect on PL [2]: not significantly affected
effect on PI-PLC (rat liver PI-PLC): not significantly affected
effect on insulin-induced tyrosine phosphorylation of IRS-1 [3]: only marginally reduced
effect on tyrosine phosphorylation of pp59Lyn and IRS-1 in response to glimepiride ([3]; 50 μM): almost complete blockade
effect on glimepiride-induced redistribution of 5'-Nuc, Gce1 and aP [4]: completely eliminated
